One block for each molecule: values may come before it. Activity calls are given as the source filed them.
Assays:
Format in all cases: functional
Ion channel NompC = Ion channel NompC (Danio rerio, UniProt Q7T1G6); experiment: Dose response cell-based high-throughput screening assay for agonists of the transient receptor potential channel N1 (TRPN1). [Related pubchem assays (depositor defined):AID1424, AID1448]
Mucolipin-3 = Mucolipin-3 (Homo sapiens, UniProt Q8TDD5); experiment: Fluorescence counterscreen assay for […] agonists: dose response cell-based high-throughput screening assay to identify agonists of the transient receptor potential channel ML3 (TRPML3). [Related pubchem assays: 1424, 1448 ]
Chain of Mucolipin-3 (Q8TDD5 whole entry): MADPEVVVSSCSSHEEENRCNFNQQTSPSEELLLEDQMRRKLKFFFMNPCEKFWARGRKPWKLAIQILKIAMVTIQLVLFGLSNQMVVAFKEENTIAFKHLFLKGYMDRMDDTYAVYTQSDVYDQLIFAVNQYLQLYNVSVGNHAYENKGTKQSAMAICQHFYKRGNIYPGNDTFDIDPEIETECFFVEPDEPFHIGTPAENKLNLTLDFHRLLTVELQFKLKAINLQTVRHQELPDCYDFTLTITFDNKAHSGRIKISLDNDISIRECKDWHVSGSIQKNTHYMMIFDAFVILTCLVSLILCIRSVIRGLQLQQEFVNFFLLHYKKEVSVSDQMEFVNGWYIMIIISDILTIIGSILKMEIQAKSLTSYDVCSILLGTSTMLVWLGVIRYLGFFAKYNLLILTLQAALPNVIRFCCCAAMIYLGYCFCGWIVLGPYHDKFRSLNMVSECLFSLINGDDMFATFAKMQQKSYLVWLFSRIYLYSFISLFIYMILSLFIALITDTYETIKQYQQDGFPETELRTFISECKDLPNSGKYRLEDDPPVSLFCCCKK

Coagulation factor XII = target: T1, Coagulation factor XII (Homo sapiens, UniProt P00748); experiment: Factor XIIa Dose Response Confirmation from Single Well HTS. [Related pubchem assays (depositor defined):AID701]
T1 sequence (P00748 whole entry): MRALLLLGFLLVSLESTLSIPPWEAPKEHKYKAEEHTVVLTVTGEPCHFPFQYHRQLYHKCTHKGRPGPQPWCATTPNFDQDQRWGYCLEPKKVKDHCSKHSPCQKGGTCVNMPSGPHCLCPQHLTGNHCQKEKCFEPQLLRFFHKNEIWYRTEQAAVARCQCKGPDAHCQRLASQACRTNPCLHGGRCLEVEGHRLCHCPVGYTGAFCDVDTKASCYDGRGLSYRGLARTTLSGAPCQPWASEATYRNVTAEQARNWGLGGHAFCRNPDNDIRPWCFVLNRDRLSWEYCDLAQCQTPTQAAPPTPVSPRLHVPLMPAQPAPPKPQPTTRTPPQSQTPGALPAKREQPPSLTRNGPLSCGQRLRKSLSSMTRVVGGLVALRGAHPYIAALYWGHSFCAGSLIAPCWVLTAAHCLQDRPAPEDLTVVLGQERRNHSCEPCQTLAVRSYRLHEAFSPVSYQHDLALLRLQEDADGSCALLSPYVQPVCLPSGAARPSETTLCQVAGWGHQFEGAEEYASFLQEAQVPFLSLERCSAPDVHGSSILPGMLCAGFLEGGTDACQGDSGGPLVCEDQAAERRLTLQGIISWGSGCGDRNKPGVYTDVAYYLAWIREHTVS

[1] = target: T2, G-protein coupled receptor 35 (Homo sapiens, UniProt Q9HC97); experiment: SAR analysis of Agonists of the GPR35 Receptor using an Image-Based Assay - Set 3. [Related pubchem assays (depositor defined):AID1961, AID1965]
T2 sequence (Q9HC97 whole entry): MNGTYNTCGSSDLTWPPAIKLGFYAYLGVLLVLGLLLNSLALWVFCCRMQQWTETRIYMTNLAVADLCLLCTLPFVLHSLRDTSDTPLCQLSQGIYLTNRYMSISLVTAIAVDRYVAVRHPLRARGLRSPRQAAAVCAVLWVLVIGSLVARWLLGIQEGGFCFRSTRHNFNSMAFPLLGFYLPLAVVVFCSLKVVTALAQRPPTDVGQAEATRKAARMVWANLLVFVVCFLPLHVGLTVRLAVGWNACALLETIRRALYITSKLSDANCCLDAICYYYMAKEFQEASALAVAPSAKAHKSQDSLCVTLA

[2] = target: G-protein coupled receptor 55 (Homo sapiens, UniProt Q9Y2T6); experiment: SAR analysis of selective Agonists of GPR55 using an Image-Based Assay - Set 2. [Related pubchem assays (depositor defined):AID1961, AID1965]
Chain of G-protein coupled receptor 55 (Q9Y2T6 whole entry): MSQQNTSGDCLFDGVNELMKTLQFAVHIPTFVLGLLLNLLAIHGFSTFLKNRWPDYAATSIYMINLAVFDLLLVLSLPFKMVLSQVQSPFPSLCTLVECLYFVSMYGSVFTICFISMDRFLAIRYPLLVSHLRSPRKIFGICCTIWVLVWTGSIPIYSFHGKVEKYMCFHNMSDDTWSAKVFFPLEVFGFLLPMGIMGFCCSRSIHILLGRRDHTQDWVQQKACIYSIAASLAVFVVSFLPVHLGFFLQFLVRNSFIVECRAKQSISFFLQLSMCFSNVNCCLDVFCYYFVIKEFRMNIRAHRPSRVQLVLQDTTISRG

Cannabinoid receptor 2 [3] = target: T3, Cannabinoid receptor 2 (Homo sapiens, UniProt P34972); experiment: SAR analysis of agonists of the Cannabinoid Receptor 2 using an Image-Based Assay - Set 2. [Related pubchem assays (depositor defined):AID1961, AID1965]
T3 sequence (P34972 whole entry): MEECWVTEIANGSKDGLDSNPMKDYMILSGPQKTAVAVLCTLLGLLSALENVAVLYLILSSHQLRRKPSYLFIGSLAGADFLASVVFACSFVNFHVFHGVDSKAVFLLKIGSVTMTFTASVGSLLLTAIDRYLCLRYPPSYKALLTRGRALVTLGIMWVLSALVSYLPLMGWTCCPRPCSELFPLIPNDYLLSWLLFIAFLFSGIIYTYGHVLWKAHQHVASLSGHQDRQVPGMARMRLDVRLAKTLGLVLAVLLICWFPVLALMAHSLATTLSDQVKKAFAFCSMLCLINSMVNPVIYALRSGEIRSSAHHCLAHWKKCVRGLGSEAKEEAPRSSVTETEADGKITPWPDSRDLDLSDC

Cannabinoid receptor 2 [4] = target: T3, Cannabinoid receptor 2; experiment: SAR analysis of antagonists of the Cannabinoid Receptor 2 using an Image-Based Assay - Set 2. [Related pubchem assays (depositor defined):AID1961, AID1965]
Cannabinoid receptor 1 [5] = target: T4, Cannabinoid receptor 1 (Homo sapiens, UniProt P21554); experiment: SAR analysis of agonists of the Cannabinoid Receptor 1 using an Image-Based Assay - Set 3. [Related pubchem assays (depositor defined):AID1961, AID1965]
T4 sequence (P21554 whole entry): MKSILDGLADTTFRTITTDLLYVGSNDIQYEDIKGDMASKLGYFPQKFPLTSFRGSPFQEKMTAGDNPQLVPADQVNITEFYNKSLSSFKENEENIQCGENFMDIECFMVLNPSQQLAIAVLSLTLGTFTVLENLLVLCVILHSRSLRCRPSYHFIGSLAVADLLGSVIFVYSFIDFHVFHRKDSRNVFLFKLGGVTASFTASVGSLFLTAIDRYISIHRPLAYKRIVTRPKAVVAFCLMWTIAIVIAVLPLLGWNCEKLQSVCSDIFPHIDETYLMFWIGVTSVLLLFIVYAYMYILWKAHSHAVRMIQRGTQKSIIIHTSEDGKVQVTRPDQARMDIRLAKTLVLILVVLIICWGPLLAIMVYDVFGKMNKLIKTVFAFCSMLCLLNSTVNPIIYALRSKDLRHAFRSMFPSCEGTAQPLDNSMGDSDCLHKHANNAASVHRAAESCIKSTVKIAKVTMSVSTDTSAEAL

Cannabinoid receptor 1 [6] = target: T4, Cannabinoid receptor 1; experiment: SAR analysis of antagonists of the Cannabinoid Receptor 1 using an Image-Based Assay - Set 3. [Related pubchem assays (depositor defined):AID1961, AID1965]
[7] = target: T2, G-protein coupled receptor 35; experiment: SAR analysis of Antagonists of the GPR35 Receptor using an Image-Based Assay - Set 4. [Related pubchem assays (depositor defined):[…]]

Chain of Ion channel NompC (Q7T1G6 whole entry): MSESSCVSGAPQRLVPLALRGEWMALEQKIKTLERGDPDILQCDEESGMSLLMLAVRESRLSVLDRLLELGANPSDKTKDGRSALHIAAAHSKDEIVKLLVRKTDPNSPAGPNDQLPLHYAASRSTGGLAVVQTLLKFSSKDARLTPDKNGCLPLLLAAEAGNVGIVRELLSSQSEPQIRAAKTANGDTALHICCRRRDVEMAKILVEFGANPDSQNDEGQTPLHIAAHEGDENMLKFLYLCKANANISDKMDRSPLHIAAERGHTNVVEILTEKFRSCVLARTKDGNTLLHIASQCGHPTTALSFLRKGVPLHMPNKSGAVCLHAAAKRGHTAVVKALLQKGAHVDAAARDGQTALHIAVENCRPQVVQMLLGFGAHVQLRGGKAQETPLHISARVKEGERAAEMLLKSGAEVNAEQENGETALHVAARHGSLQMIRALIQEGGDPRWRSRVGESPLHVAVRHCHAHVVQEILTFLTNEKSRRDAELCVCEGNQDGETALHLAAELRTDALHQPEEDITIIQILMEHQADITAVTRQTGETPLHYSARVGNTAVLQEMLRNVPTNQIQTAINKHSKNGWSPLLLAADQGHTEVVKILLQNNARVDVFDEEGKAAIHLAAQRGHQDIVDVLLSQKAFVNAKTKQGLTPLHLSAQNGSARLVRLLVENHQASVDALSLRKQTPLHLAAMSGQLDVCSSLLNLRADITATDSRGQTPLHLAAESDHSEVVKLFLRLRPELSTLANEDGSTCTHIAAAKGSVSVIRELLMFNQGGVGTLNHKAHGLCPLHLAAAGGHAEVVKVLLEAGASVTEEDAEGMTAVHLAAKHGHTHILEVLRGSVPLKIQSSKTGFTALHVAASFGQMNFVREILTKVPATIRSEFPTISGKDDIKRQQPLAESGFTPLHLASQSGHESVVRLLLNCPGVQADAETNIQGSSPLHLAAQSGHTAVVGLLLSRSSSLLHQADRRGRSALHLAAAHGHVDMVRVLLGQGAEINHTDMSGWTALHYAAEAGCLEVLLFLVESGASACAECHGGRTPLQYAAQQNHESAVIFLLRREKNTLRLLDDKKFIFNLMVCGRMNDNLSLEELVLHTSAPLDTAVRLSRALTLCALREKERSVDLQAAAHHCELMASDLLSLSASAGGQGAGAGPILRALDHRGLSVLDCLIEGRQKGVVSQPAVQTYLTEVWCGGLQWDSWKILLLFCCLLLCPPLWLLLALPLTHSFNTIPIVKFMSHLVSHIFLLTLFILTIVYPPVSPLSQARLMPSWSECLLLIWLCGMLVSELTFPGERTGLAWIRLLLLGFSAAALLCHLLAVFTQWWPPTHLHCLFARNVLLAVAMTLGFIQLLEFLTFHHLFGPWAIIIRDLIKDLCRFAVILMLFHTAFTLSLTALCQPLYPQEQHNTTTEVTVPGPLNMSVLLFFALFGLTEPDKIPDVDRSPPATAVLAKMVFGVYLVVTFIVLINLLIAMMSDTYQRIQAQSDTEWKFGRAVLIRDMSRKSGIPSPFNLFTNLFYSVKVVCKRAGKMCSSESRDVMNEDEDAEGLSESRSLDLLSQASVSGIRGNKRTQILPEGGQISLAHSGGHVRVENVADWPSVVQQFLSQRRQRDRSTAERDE

EC50 (Ion channel NompC): > 29.9 µM (inactive) | EC50 (Mucolipin-3): > 29.9 µM (not active)
SMILES: COCc1nnc(SCC(=O)NCc2ccccc2)n1-c1ccccc1

IC50 (Coagulation factor XII): > 50 µM (inconclusive)
SMILES: Cc1cc(OC(=O)c2ccco2)c2c(C)cc(=O)oc2c1

EC50 [1]: > 32 µM (inactive) | EC50 [2]: 1.37 µM (active) | EC50 (Cannabinoid receptor 2 [3]): > 32 µM (inactive) | IC50 (Cannabinoid receptor 2 [4]): > 32 µM (inactive) | EC50 (Cannabinoid receptor 1 [5]): > 32 µM (inactive) | IC50 (Cannabinoid receptor 1 [6]): > 32 µM (inactive) | IC50 [7]: > 32 µM (inactive)
SMILES: O=C(Nc1cccc(S(=O)(=O)N2CCOCC2)c1)c1ccc(N2CCCC2=O)cc1
